What all share (test): Cu(II)-VBIDA affinity for the tag (Table 1)
Type in all cases: binding
What all share (conditions): r^2 ≈ 0.98

The target of experiment [1] is green fluorescent protein (GFP) variant GFP12, tag MEFHSVGLH, SEQ ID NO: 6. From the text:
(§1) In this figure the kD data is given in millimolar not micromolar units.

For experiment [2], the target named is green fluorescent protein (GFP) variant GFP2, tag MEFHSVGMH, SEQ ID NO: 3.
Description: as §1

The target of experiment [3] is green fluorescent protein (GFP) variant GFP24, tag MEFHLRARH, SEQ ID NO: 7.
Description: as §1

The target in experiment [4] is green fluorescent protein (GFP) variant GFP28, tag MEFHITGHH, SEQ ID NO: 11.
Description: as §1

Experiment [5] addresses green fluorescent protein (GFP) variant GFP29, tag MEFHHSLVH, SEQ ID NO: 12.
Description: as §1

The target in experiment [6] is green fluorescent protein (GFP), n-GFP (native, N-terminus MEFELGT, SEQ ID NO: 1).
Description: as §1

For experiment [7], the target named is green fluorescent protein (GFP) variant GFP25, tag MEFHRPMRH, SEQ ID NO: 8.
Description: as §1
(§2) These values are suitably low for such tags to be used in a separation process with binding of target at high enough affinity to allow for ease of washing and recovery.

For experiment [8], the target named is green fluorescent protein (GFP) variant GFP27, tag MEFHWVARH, SEQ ID NO: 10.
Description: as §1, §2

In experiment [9] the target is green fluorescent protein (GFP) variant GFP30, tag MEFHAHHLH, SEQ ID NO: 13.
Description: as §1, §2

In experiment [10] the target is green fluorescent protein (GFP), 6His-GFP, tag […], SEQ ID NO: 14.
Description: as §1, §2

On to `C=Cc1ccc(CN(CC(=O)O)CC(=O)O)cc1.[Cu+2]` [Cu(II)-VBIDA, N-(4-vinyl)-benzyl iminodiacetic acid], for which the Kd worked out at 200 µM in experiment [1]; 1200 µM in [2]; 150 µM in experiment [3]; 110 µM in experiment [4]; 100 µM in experiment [5]; 1680 µM in [6]. The Kd in experiment [7] is 140 µM; in [8], 120 µM; in experiment [9] it was 90 µM; in experiment [10], 70 µM.

By Kd is commonly meant the equilibrium constant for the complex coming apart.

Values taken from patent US20110053225A1, “MULTI[…]” (GE […]-SCIENCES AB, priority 2008, published 2011).
